Source: patent US12570655B2, “Cysteine covalent modifiers of AKT1 and uses thereof” (Terremoto Biosciences, Inc., priority 2023, dated 2026)
Where two headings read alike, the source gives them in different places.

Assays:
Type in all cases: cell-based
[1] = molecular target: T1, AKT1 WT (Homo sapiens, UniProt P31749); assay: Live cell AKT1 WT target engagement by NanoBRET competitive probe displacement; settings: HEK293 cells transfected with kinase-NanoLuciferase fusion, 2 h at 37° C.
T1 construct: expressed in transfected cells; host or cells: HEK293
T1 sequence (P31749 whole entry, the tested form may be a part): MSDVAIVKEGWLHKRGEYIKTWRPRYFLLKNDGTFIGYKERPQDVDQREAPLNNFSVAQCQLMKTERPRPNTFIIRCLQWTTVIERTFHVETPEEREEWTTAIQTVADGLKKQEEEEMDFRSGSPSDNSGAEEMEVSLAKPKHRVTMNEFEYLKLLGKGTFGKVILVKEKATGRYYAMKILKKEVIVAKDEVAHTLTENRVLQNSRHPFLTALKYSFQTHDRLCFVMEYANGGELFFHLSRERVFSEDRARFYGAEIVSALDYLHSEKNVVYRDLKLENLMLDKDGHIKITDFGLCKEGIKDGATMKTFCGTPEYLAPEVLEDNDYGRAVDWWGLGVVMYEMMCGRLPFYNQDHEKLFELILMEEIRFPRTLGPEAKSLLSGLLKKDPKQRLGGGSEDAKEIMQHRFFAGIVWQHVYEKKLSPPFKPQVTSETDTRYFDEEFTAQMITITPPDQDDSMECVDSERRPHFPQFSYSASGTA
Outline: (§1)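 IC50 fitted (Hill, log inhibitor vs response) to BRET signal, E600/E460 ratio, measured with extracellular NanoLuc inhibitor present. Intact transfected HEK293 cells bearing NanoLuc-tagged kinase were co-incubated 2 h, 37 °C, with compound dilution series and ~EC50 ATP-competitive fluorescent tracer.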

[2] = test system: LAPC4 prostate cancer cells; assay: Antiproliferative effects in LAPC4 cells (CellTiter Glo); settings: LAPC4 cells (AKT1 E17K allele), read-out: LAPC4 proliferation IC50
Outline: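 Growth inhibition was measured by CellTiter Glo ATP luminescence after 72 h compound exposure of 1,000 seeded cells/well. The cells were AKT1 E17K-expressing LAPC4 prostate cancer cells maintained in IMDM plus 12% FBS. IC50 values came from Hill-equation fits.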

[3] = molecular target: T2, AKT1 E17K (Homo sapiens, UniProt P31749, E17K); assay: Live cell AKT1 E17K target engagement by NanoBRET competitive probe displacement; settings: HEK293 cells transfected with kinase-NanoLuciferase fusion, 2 h at 37° C.
T2 construct: expressed in transfected cells; host or cells: HEK293
T2 sequence (P31749 whole entry E17K, the tested form may be a part): as the sequence (P31749 whole entry, the tested form may be a part) above, with E17K counted along it
Outline: as §1

[4] = molecular target: T3, AKT2 (Homo sapiens, UniProt P31751); assay: Live cell AKT2 target engagement by NanoBRET competitive probe displacement; settings: HEK293 cells transfected with kinase-NanoLuciferase fusion, 2 h at 37° C.
T3 construct: expressed in transfected cells; host or cells: HEK293
T3 sequence (P31751 whole entry, the tested form may be a part): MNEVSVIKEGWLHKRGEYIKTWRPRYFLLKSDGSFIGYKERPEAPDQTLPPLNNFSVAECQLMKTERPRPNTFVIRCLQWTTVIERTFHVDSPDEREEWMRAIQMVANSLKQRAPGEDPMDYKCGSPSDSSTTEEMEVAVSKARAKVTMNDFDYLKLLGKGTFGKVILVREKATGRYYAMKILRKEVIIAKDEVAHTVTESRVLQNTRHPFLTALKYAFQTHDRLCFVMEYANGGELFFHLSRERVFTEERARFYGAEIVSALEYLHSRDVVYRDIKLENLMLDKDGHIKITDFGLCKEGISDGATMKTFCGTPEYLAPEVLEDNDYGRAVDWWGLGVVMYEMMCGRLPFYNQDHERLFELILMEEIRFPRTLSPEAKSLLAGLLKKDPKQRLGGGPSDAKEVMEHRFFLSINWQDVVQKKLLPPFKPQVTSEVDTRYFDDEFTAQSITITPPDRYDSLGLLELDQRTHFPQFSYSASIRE
Outline: as §1

| Compound | IC50 [1] | IC50 ([2]; Homo sapiens, LAPC4, 72 h) | IC50 [3] | IC50 [4] | IC50 ([2]; 72 h) |
| --- | --- | --- | --- | --- | --- |
| C=CC(=O)NCc1ccccc1C(=O)N[C@H]1CCc2cc(-n3c(-c4cccnc4N)nc4ccc(-n5nccn5)nc43)ccc21 [Example 263, (S)-N-[(1S)-5-[2-(2-aminopyridin-3-yl)-5-(1,2,3-triazol-2-yl)imidazo[4,5-b]pyridin-3-yl]-2,3-dihydro-1H-inden-1-yl]-2-(prop-2-enamidomethyl)benzamide] | 2940 nM | 680 nM | 39.8 nM | 153 nM | – |
| C=C(F)C(=O)NCc1ccccc1C(=O)N[C@H]1CCc2cc(-n3c(-c4cccnc4N)nc4ccc(-n5cccn5)nc43)ccc21 [Example 264, N-[(1S)-5-[2-(2-aminopyridin-3-yl)-5-(pyrazol-1-yl)imidazo[4,5-b]pyridin-3-yl]-2,3-dihydro-1H-inden-1-yl]-2-[(2-fluoroprop-2-enamido)methyl]benzamide] | 937 nM | 1330 nM | 27.8 nM | 171 nM | – |
| C=CC(=O)NCCc1ccccc1C(=O)N[C@H]1CCc2cc(-n3c(-c4cccnc4N)nc4ccc(-n5cccn5)nc43)ccc21 [Example 268, (S)-2-(2-acrylamidoethyl)-N-(5-(2-(2-aminopyridin-3-yl)-5-(1H-pyrazol-1-yl)-3H-imidazo[4,5-b]pyridin-3-yl)-2,3-dihydro-1H-inden-1-yl)benzamide] | 297 nM | 358 nM | 14.8 nM | 55.9 nM | – |
| C=CC(=O)N1CCC(N[C@H]2CCc3cc(-n4c(-c5cccnc5N)nc5ccc(-n6ccc(C(C)C)n6)nc54)ccc32)CC1 [Example 281, 1-(4-{[(1S)-5-[2-(2-aminopyridin-3-yl)-5-(3-isopropylpyrazol-1-yl)imidazo[4,5-b]pyridin-3-yl]-2,3-dihydro-1H-inden-1-yl]amino}piperidin-1-yl)prop-2-en-1-one] | 254 nM | 253 nM | 15.4 nM | 80.8 nM | – |
| C=CC(=O)N1CCC(N[C@H]2CCc3cc(-n4c(-c5ccccc5)nc5ccc(-n6ccc(F)n6)nc54)ccc32)CC1 [Example 282, 1-(4-{[(1S)-5-[5-(3-fluoropyrazol-1-yl)-2-phenylimidazo[4,5-b]pyridin-3-yl]-2,3-dihydro-1H-inden-1-yl]amino}piperidin-1-yl)prop-2-en-1-one] | 1590 nM | 464 nM | 15.2 nM | 86 nM | – |
| C=CC(=O)N1CC2CC1CCC2N[C@H]1CCc2cc(-n3c(-c4cccnc4N)nc4ccc(-n5cccn5)nc43)ccc21 (stereo partly drawn) [Example 294, 1-(2-(((S)-5-(2-(2-aminopyridin-3-yl)-5-(1H-pyrazol-1-yl)-3H-imidazo[4,5-b]pyridin-3-yl)-2,3-dihydro-1H-inden-1-yl)amino)-6-azabicyclo[3.2.1]octan-6-yl)prop-2-en-1-one] | 301 nM | 217 nM | 28.6 nM | 56.7 nM | – |
| C=CC(=O)N1CCC(N[C@H]2CCc3cc(-n4c(-c5cccnc5N)nc5ccc(-n6ccc(C7CCCC7)n6)nc54)ccc32)CC1 [Example 306, 1-(4-{[(1S)-5-[2-(2-aminopyridin-3-yl)-5-(3-cyclopentylpyrazol-1-yl)imidazo[4,5-b]pyridin-3-yl]-2,3-dihydro-1H-inden-1-yl]amino}piperidin-1-yl)prop-2-en-1-one] | 186 nM | 203 nM | 15.7 nM | 72.3 nM | – |
| C=CC(=O)N1CCC(N[C@H]2CCc3cc(-n4c(-c5cccnc5N)nc5ccc(-n6cccn6)nc54)ccc32)C(C)(F)C1 (stereo partly drawn) [Example 308, 1-((3*)-4-(((S)-5-(2-(2-aminopyridin-3-yl)-5-(1H-pyrazol-1-yl)-3H-imidazo[4,5-b]pyridin-3-yl)-2,3-dihydro-1H-inden-1-yl)amino)-3-fluoro-3-methylpiperidin-1-yl)prop-2-en-1-one] | 307 nM | 300 nM | 11.8 nM | 62.3 nM | – |
| C=CC(=O)N1CCC(N[C@@H]2c3ccc(-n4c(-c5cccnc5N)nc5ccc(-c6ccn(C(F)F)n6)nc54)cc3CC2F)CC1 (stereo partly drawn) [Example 310, 1-(4-(((1R,2*)-5-(2-(2-aminopyridin-3-yl)-5-(1-(difluoromethyl)-1H-pyrazol-3-yl)-3H-imidazo[4,5-b]pyridin-3-yl)-2-fluoro-2,3-dihydro-1H-inden-1-yl)amino)piperidin-1-yl)prop-2-en-1-one] | 1480 nM | – | 34.5 nM | 277 nM | 553 nM |
| C=CC(=O)N1CCC(N[C@H]2CCc3cc(-n4c(-c5cccnc5N)nc5cc(F)c(-n6cccn6)nc54)ccc32)CC1 [Example 313, 1-(4-{[(1S)-5-[2-(2-aminopyridin-3-yl)-6-fluoro-5-(pyrazol-1-yl)imidazo[4,5-b]pyridin-3-yl]-2,3-dihydro-1H-inden-1-yl]amino}piperidin-1-yl)prop-2-en-1-one] | 518 nM | 347 nM | 21.8 nM | 113 nM | – |

Now those with a lower IC50 [1], led by results:

| IC50 [1] | IC50 ([2]; Homo sapiens, LAPC4, 72 h) | IC50 [3] | IC50 [4] | Compound | IC50 ([2]; 72 h) |
| --- | --- | --- | --- | --- | --- |
| 89.6 nM | 101 nM | 10.2 nM | 24.6 nM | C=CC(=O)N(C)Cc1ccccc1C(=O)N[C@H]1CCc2cc(-n3c(-c4cccnc4N)nc4ccc(-n5cccn5)nc43)ccc21 [Example 265, (S)-N-(5-(2-(2-aminopyridin-3-yl)-5-(1H-pyrazol-1-yl)-3H-imidazo[4,5-b]pyridin-3-yl)-2,3-dihydro-1H-inden-1-yl)-2-((N-methylacrylamido)methyl)benzamide] | – |
| 86.4 nM | 335 nM | 5.9 nM | 53.6 nM | CC#CC(=O)NCc1ccccc1C(=O)N[C@H]1CCc2cc(-n3c(-c4cccnc4N)nc4ccc(-n5cccn5)nc43)ccc21 [Example 267, N-[(1S)-5-[2-(2-aminopyridin-3-yl)-5-(pyrazol-1-yl)imidazo[4,5-b]pyridin-3-yl]-2,3-dihydro-1H-inden-1-yl]-2-(but-2-ynamidomethyl)benzamide] | – |
| 127 nM | 104 nM | 20.3 nM | 82.1 nM | C=CC(=O)N1CCC(N[C@H]2CCc3cc(-n4c(-c5cccnc5N)nc5ccc(-n6ccc(COC)n6)nc54)ccc32)CC1 [Example 280, 1-(4-{[(1S)-5-[2-(2-aminopyridin-3-yl)-5-[3-(methoxymethyl)pyrazol-1-yl]imidazo[4,5-b]pyridin-3-yl]-2,3-dihydro-1H-inden-1-yl]amino}piperidin-1-yl)prop-2-en-1-one] | – |
| 133 nM | 835 nM | 9.03 nM | 42 nM | C=CC(=O)N1CCC(N[C@H]2CCc3cc(-n4c(-c5cccnc5N)nc5ccc(-n6ccc(C7CCC7)n6)nc54)ccc32)CC1 [Example 283, 1-(4-{[(1S)-5-[2-(2-aminopyridin-3-yl)-5-(3-cyclobutylpyrazol-1-yl)imidazo[4,5-b]pyridin-3-yl]-2,3-dihydro-1H-inden-1-yl]amino}piperidin-1-yl)prop-2-en-1-one] | – |
| 93.4 nM | 59.1 nM | 33.2 nM | 36.6 nM | C=CC(=O)N1CCC(N[C@H]2CCc3cc(-n4c(-c5cccnc5N)nc5ccc(-n6cccn6)nc54)ccc3C2)CC1 [Example 296, 1-(4-{[(2S)-6-[2-(2-aminopyridin-3-yl)-5-(pyrazol-1-yl)imidazo[4,5-b]pyridin-3-yl]-1,2,3,4-tetrahydronaphthalen-2-yl]amino}piperidin-1-yl)prop-2-en-1-one] | – |
